According to ChEMBL document CHEMBL5608141, “Identification of compartment-specific drug sensitivities in CRC organoid-stroma co-cultures” (2024):

What was measured:
Format in all cases: functional, Homo sapiens
Parameters in all cases: dose or concentration left out as unconfirmed
[1] = tested on: Colon cancer organoid; assay: Identification of compartment-specific drug sensitivities in O06 CRC organoid-stroma F06 CAF co-cultures. Organoid is transduced with Lucferase2-P2A-EGFP lentivirus, fibroblast with Renilla-dsRed lentivirus. Dual-Glo Luciferase assay is used to report viability data.
[2] = tested on: Colon cancer organoid; assay: Identification of compartment-specific drug sensitivities in O20 CRC organoid-stroma F20 CAF co-cultures. Organoid is transduced with Lucferase2-P2A-EGFP lentivirus, fibroblast with Renilla-dsRed lentivirus. Dual-Glo Luciferase assay is used to report viability data.
[3] = tested on: Colon cancer organoid; assay: Identification of compartment-specific drug sensitivities in O14 CRC organoid-stroma F14 CAF co-cultures. Organoid is transduced with Lucferase2-P2A-EGFP lentivirus, fibroblast with Renilla-dsRed lentivirus. Dual-Glo Luciferase assay is used to report viability data.
[4] = Transduced with Lucferase2-P2A-EGFP lentivirus
[5] = Transduced with Renilla-dsRed lentivirus

Row | SMILES | Cell Viability [1, 4] | Cell Viability [1, 5] | Cell Viability [2, 4] | Cell Viability [2, 5] | Cell Viability [3, 4] | Cell Viability [3, 5]
1 | CN(C)C(=O)c1ccc(-c2cc(C(=O)N(C)C3CCCC3)no2)cc1O | 126.057% | 129.278% | 123.545% | 110.433% | 137.993% | 111.926%
2 | COc1ncc(F)cc1CNc1ccc(Cc2c[nH]c3ncc(C)cc23)c(F)n1 [PLX-5622] | 82.7626% | 63.3822% | 206.903% | 55.6932% | 119.621% | 35.1649%
3 | O=c1nc(-c2ccccn2)sc2ccccc12 [BTZO-1] | 109.998% | 128.099% | 113.092% | 104.485% | 117.78% | 105.233%
4 | CN(C)C(=O)Cn1cc(-c2ccc(-c3nnc4ccccn34)cc2)cn1 | 105.212% | 110.192% | 167.784% | 52.6743% | 99.1399% | 78.8551%
5 | CC[C@@H]1CN(C(=O)NCC(F)(F)F)C[C@@H]1c1cnc2cnc3[nH]ccc3n12 [UPADACITINIB] | 104.182% | 86.3482% | 123.879% | 83.5298% | 147.848% | 94.1248%
6 | CCC(=O)N1CCOc2c(cc(-c3ccc(OC)c(OC)c3)cc2OCC2CCCN(C)C2)C1 (stereo not given) | 113.999% | 135.091% | 85.7121% | 123.175% | 132.169% | 110.752%
7 | CCC(F)(F)c1cc(N2CCC(S(C)(=O)=O)CC2)nc2sc(C(N)=O)c(N)c12 [BI-605906] | 93.6384% | 92.3898% | 180.529% | 81.0914% | 95.5116% | 75.9837%
8 | CCCOc1ccn2c(C(C)=O)cc(-c3cccc(OC)c3)c2c1 | 110.241% | 146.669% | 77.121% | 110.044% | 85.0656% | 86.803%
9 | CNC(=O)c1ccc(Nc2ncc(C(F)(F)F)c(NCc3nccnc3N(C)S(C)(=O)=O)n2)cc1 [DEFACTINIB] | 119.668% | 427.019% | 57.0475% | 79.7534% | 78.9872% | 82.2867%
10 | CN([C@@H]1CCc2c(CC(=O)O)c3ccccc3n2C1)S(=O)(=O)c1ccc(F)cc1 [MK-7246] | 70.9731% | 124.085% | 94.6909% | 109.932% | 114.74% | 112.48%
